Biological target: T1, JAK3 (Homo sapiens, UniProt P52333)
T1 sequence (P52333 1-1124): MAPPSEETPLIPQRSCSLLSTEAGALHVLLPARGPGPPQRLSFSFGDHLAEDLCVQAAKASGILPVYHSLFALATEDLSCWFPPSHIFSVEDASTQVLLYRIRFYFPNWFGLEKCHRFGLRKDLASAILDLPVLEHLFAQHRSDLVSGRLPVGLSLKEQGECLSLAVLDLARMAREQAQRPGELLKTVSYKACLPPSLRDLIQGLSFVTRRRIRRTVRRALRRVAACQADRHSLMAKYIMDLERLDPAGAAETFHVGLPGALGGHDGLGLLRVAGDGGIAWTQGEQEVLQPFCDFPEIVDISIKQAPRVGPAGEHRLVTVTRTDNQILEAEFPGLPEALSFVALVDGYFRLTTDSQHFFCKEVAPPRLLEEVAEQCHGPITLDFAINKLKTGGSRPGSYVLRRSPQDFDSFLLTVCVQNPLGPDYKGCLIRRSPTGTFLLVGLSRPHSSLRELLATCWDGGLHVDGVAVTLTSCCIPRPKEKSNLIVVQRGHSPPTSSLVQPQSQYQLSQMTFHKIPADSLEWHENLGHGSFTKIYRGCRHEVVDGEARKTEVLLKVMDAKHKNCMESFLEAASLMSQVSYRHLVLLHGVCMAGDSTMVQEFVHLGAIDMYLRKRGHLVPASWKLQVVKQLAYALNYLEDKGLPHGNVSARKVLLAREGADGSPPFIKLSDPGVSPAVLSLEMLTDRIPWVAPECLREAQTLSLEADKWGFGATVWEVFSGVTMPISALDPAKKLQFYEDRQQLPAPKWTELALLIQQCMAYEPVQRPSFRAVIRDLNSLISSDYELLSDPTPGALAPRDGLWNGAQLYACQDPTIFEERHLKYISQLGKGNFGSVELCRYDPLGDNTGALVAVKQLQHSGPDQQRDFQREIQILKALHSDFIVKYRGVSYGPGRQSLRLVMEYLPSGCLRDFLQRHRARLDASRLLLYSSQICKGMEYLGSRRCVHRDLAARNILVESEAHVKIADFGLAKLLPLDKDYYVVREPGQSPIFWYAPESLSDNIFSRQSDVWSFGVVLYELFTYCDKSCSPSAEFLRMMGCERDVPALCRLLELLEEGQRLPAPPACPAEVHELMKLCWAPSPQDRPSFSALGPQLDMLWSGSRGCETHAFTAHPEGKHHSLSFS
Assay: tyrosine kinase ELISA, DBH inhibition of JAK3 (Example 6)
Type: biochemical
Settings: GAS 1 biotinylated peptide substrate, 0-1250 μM ATP, 30 min at 37° C., read-out: inhibition constant (Ki)
Protocol: Nunc-Immunoplate Maxisorp flat-bottomed capture plates (Nalge Nunc International, Rochester, N.Y.) were coated with 80 μl/well anti-phosphotyrosine PY54 MAb antibody (Transduction Labs, Lexington, Ky.), diluted to 2 μg/ml in coating buffer (10 mM phosphate, pH 7.2+0.02% NaN3), and allowed to adsorb overnight at 4° C. The plates were washed (all washes are 4× with TBST: 25 mM Tris/HCl, pH 8.0, 150 mM NaCl+0.05% Tween-20), and 200 μl/well of blocking buffer (TBST+1% BSA) was added. The plates were sealed and incubated at 37° C. for 60 min or overnight at 4° C., and washed again.
Kinase reactions were run in 50 μl volumes with biotinylated peptide substrate in a round-bottom plate (Corning, Corning, N.Y.). Kinase reactions mixtures contained; 20 μl 50 μM GAS 1 biotinylated peptide (LCBiotin-EGPWLEEEEEAYGWMDF-amide), 0-1250 μM ATP in kinase buffer, 10 μl 50 mM MgCl2 in 2× kinase buffer (50 mM imidazole/HCl, 2 mM EDTA, 0.2 mM EDTA, 0.030% Brij-35, pH 6.8), 10 μl 0-50 μM DBH in water containing 0.2% Pluronic-104 and 3% dimethyl sulfoxide (DMSO), and 10 μl JAK3 enzyme diluted in kinase buffer. A phosphopeptide standard curve (0-10 nM) using kinase buffer as the diluent was also tested.
Kinase reactions were run for 30 min at 37° C., then stopped by adding 15 μl/well of 0.125 M EDTA, pH 6.8. […] Samples were read at A450-A620.

Ki: 0.286 ± 0.016 µM
SMILES: NC1=NC(=O)C(=C2CCNC(=O)c3[nH]ccc32)N1 [DBH, 4-(2-amino-4-oxo-2-imidazolin-5-ylidene)-4,5,6,7-tetrahydropyrrolo(2,3-c) azepine-8-one]
